The test system of one test is thrombin. The test is described as follows: More sensitive thrombin activity assay: hydrolysis of fluorogenic substrate Z-GPR-afc (fluorescence at 500 nm). To be noted: fluorescence at 500 nm (excitation at 400 nm). It is filed as biochemical, human. As to the method:
(§1) Assays of human a-thrombin and human trypsin were performed at 25° C. in 0.05M TRIS buffer pH 7.4, 0.15M NaCl, 0.1% PEG. Trypsin assays also contained 1 mM CaCl2.
(§2) In certain studies with potent inhibitors (Ki <10 nM) where the degree of inhibition of thrombin was high, a more sensitive activity assay was employed. […] Concentrations of stock solutions of Z-GPR-afc were determined from measurements of absorbance at 380 nm of the 7-amino-4-trifluoromethyl coumarin produced upon complete hydrolysis of an aliquot of the stock solution by thrombin.
(§3) Activity assays were performed by diluting a stock solution of substrate at least tenfold to a final concentration 0.5 Km into a solution containing enzyme or enzyme equilibrated with inhibitor. Times required to achieve equilibration between enzyme and inhibitor were determined in control experiments. Initial velocities of product formation in the absence (Vo) or presence of inhibitor (Vi) were measured. Assuming competitive inhibition, and that unity is negligible compared Km /[S], […] (where [S], [I], and e respectively represent the total concentrations, of substrate, inhibitor and enzyme), the equilibrium constant (Ki) for dissociation of the inhibitor from the enzyme can be obtained from the dependence of Vo /Vi on [I] shown in equation 1.

The subject of a further test is human thrombin. The test is described as follows: In vitro assay for determining proteinase inhibition: human thrombin (sar-PR-pna hydrolysis at 405 nm; Z-GPR-afc for potent inhibitors). The format is biochemical. The following applies: 25° C., pH 7.4; chromogenic substrate. As to the method:
(§4) In vitro assay for determining proteinase inhibition
as §1, §2, §3

The test system of a further test is human trypsin. The test is described as follows: In vitro assay for determining proteinase inhibition: human trypsin (sar-PR-pna hydrolysis at 405 nm). To be noted: 25° C., pH 7.4, 1 mM CaCl2; chromogenic substrate. It is filed as biochemical. As for the experimental part: as §4, §1, §3

Non-standard residues stand in square brackets, D forms with d. Residues, ends and D or L forms follow the SMILES beside them. *: point of attachment. AFC = O=c1cc(C(F)(F)F)c2ccc(N*)cc2o1; pNA = O=[N+]([O-])c1ccc(N*)cc1; Cbz = O=C(OCc1ccccc1)*; Sar = CNCC(=O)O

A word on the Km: it is the concentration of substrate that gives half-maximal velocity.

With `N=C(N)NCCC[C@H](NC(=O)[C@@H]1CCCN1C(=O)CNC(=O)OCc1ccccc1)C(=O)Nc1ccc2c(C(F)(F)F)cc(=O)oc2c1` [Z-GPR-afc, Cbz-Gly-Pro-Arg-7-amino-4-trifluoromethylcoumarin] (Cbz-Gly-Pro-Arg-{AFC}), in the test on thrombin, the Km stood at 27 µM.
`CNCC(=O)N1CCC[C@H]1C(=O)N[C@@H](CCCNC(=N)N)C(=O)Nc1ccc([N+](=O)[O-])cc1` [sar-PR-pna, sarcosine-Pro-Arg-p-nitroanilide] (H-[Sar]-Pro-Arg-pNA): the Km was 125 µM in the test on human thrombin and 59 µM in the test on human trypsin.

For the origin of these results see patent US5792761A, “Thrombin inhibitors” (Merck & Co., Inc., priority 1997, dated 1998).
